Experimental data: ChEMBL document CHEMBL2046439, “Spectaflavoside A, a new potent iron chelating dimeric flavonol glycoside from the rhizomes of Zingiber spectabile Griff” (Bioorg Med Chem Lett, 2012)
Structures can show the parent of a compound that is named as a salt.

Legend:
HT-29 = experiment: Antiproliferative activity against human HT-29 cells after 48 hrs by MTS assay; format: functional, cell-based; conditions: HT-29, 48 h
A549 = experiment: Antiproliferative activity against human A549 cells after 48 hrs by MTS assay; format: functional, cell-based; conditions: A549, 48 h
HepG2 = experiment: Antiproliferative activity against human HepG2 cells after 48 hrs by MTS assay; format: functional, cell-based; conditions: HepG2, 48 h
MCF7 = experiment: Antiproliferative activity against human MCF7 cells after 48 hrs by MTS assay; format: functional, cell-based; conditions: MCF7, 48 h
BXPC-3 = experiment: Antiproliferative activity against human BxPC3 cells after 48 hrs by MTS assay; format: functional, cell-based; conditions: BXPC-3, 48 h
SK-MEL-5 = experiment: Antiproliferative activity against human SK-MEL-5 cells after 48 hrs by MTS assay; format: functional, cell-based; conditions: SK-MEL-5, 48 h
DU-145 = experiment: Antiproliferative activity against human DU145 cells after 48 hrs by MTS assay; format: functional, cell-based; conditions: DU-145, 48 h
MDA-MB-231 = experiment: Antiproliferative activity against human MDA-MB-231 cells after 48 hrs by MTS assay; format: functional, cell-based; conditions: MDA-MB-231, 48 h
[1] = Fe2+ chelating activity of the compound incubated for 5 mins prior to ferrozine-addition measured after 10 mins by spectrophotometry; format: functional; parameters: concentration or dose not given beside the values

Structure (SMILES): CC[C@]1(O)C[C@@H]2CN(CCc3c([nH]c4ccccc34)[C@@](C(=O)OC)(c3cc4c(cc3OC)N(C)[C@H]3[C@@](O)(C(=O)OC)[C@H](OC(C)=O)[C@]5(CC)C=CCN6CC[C@]43[C@@H]65)C2)C1 [VINBLASTINE SULFATE]
- IC50 (HT-29): 11.2 µM
- IC50 (A549): 2.36 µM
- IC50 (HepG2): 0.16 µM
- IC50 (MCF7): 24.1 µM
- IC50 (BXPC-3): 1.13 µM
- IC50 (SK-MEL-5): 1.74 µM
- IC50 (DU-145): 4.25 µM
- IC50 (MDA-MB-231): 31.5 µM

Structure (SMILES): COc1cc(/C=C/C(=O)CC(=O)/C=C/c2ccc(O)c(OC)c2)ccc1O [CURCUMIN]
- IC50 (HT-29): 15.9 µM
- IC50 (A549): 62.6 µM
- IC50 (HepG2): 59.4 µM
- IC50 (MCF7): 65.2 µM
- Activity [1]: 37.9%
- IC50 (BXPC-3): 11.4 µM
- IC50 (SK-MEL-5): 50.4 µM
- IC50 (DU-145): 38.2 µM
- IC50 (MDA-MB-231): 64.7 µM

Structure (SMILES): CC(=O)O[C@@H]1[C@@H](OC(C)=O)[C@@H](O)[C@H](Oc2c(-c3ccc(O)cc3)oc3cc(O)cc(O)c3c2=O)O[C@H]1C
- Activity [1]: 55.4%

Structure (SMILES): CC(=O)O[C@@H]1[C@@H](O)[C@@H](OC(C)=O)[C@H](Oc2c(-c3ccc(O)cc3)oc3cc(O)cc(O)c3c2=O)O[C@H]1C
- IC50 (HT-29): > 150 µM
- IC50 (A549): > 150 µM
- IC50 (HepG2): > 150 µM
- IC50 (MCF7): > 150 µM
- Activity [1]: 49.1%
- IC50 (BXPC-3): 113 µM
- IC50 (SK-MEL-5): > 150 µM
- IC50 (DU-145): > 150 µM
- IC50 (MDA-MB-231): > 150 µM

Structure (SMILES): CC(=O)O[C@@H]1[C@@H](O)[C@H](C)O[C@@H](Oc2c(-c3ccc(O)cc3)oc3cc(O)cc(O)c3c2=O)[C@@H]1OC(C)=O
- Activity [1]: 52.2%

Structure (SMILES): CC(=O)O[C@@H]1[C@@H](O)[C@@H](O)[C@H](Oc2c(-c3ccc(O)cc3)oc3cc(O)c(-c4c(O)cc(O)c5c(=O)c(O[C@@H]6O[C@@H](C)[C@H](OC(C)=O)[C@@H](O)[C@H]6O)c(-c6ccc(O)cc6)oc45)c(O)c3c2=O)O[C@H]1C
- Activity [1]: 87.4%

Structure (SMILES): CC(=O)O[C@@H]1[C@@H](O)[C@@H](O)[C@H](Oc2c(-c3ccc(O)cc3)oc3cc(O)cc(O)c3c2=O)O[C@H]1C
- IC50 (HT-29): > 150 µM
- IC50 (A549): > 150 µM
- IC50 (HepG2): > 150 µM
- IC50 (MCF7): > 150 µM
- Activity [1]: 29.1%
- IC50 (BXPC-3): > 150 µM
- IC50 (SK-MEL-5): > 150 µM
- IC50 (DU-145): > 150 µM
- IC50 (MDA-MB-231): > 150 µM

Structure (SMILES): COc1cc(/C=C/C(O)=C/C(=O)/C=C/c2ccc(O)cc2)ccc1O [DEMETHOXYCURCUMIN]
- IC50 (HT-29): 19.4 µM
- IC50 (A549): 74.1 µM
- IC50 (HepG2): 80 µM
- IC50 (MCF7): 75.3 µM
- Activity [1]: 50.9%
- IC50 (BXPC-3): 24.1 µM
- IC50 (SK-MEL-5): 61.4 µM
- IC50 (DU-145): 48.1 µM
- IC50 (MDA-MB-231): 87.5 µM

Structure (SMILES): O=c1c(O)c(-c2ccc(O)cc2)oc2cc(O)cc(O)c12
- Activity [1]: 12.1%
